Assays:
Test in all cases: combination Emax (second highest fraction inhibited in the dose matrix, 72 h); higher = more inhibition; extreme values may be limits of the assay
[1] = system: AM-38 (Glioblastoma)
How it was run: (§1)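 After 24 hours at 37°C and 5% CO2 in 1536-well plates, cells in DMEM/F12 or RPMI plus 10% FBS received two-drug dose matrices for 72 hours. Viability came from CellTiter-Glo 2.0 luminescence and was scaled as inhibition, anchored at 0 by vehicle wells and at 1 by blank wells. Combination Emax is taken as the second-highest inhibition in the matrix, and Bliss excess as the observed combination effect less EA + EB − EA·EB, with EA and EB the single-agent effects.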

[2] = system: C-33-A (Cervical Carcinoma)
How it was run: as §1

[3] = system: CL-11 (Colorectal Carcinoma)
How it was run: as §1

[4] = system: COR-L88 (Small Cell Lung Carcinoma)
How it was run: as §1

[5] = system: ES6 (Ewing's Sarcoma)
How it was run: as §1

[6] = system: GAK (Melanoma)
How it was run: as §1

[7] = system: IA-LM (Non-Small Cell Lung Carcinoma)
How it was run: as §1

[8] = system: IST-MEL1 (Melanoma)
How it was run: as §1

[9] = system: LCLC-103H (Non-Small Cell Lung Carcinoma)
How it was run: as §1

[10] = system: LS-1034 (Colorectal Carcinoma)
How it was run: as §1

[11] = system: NCI-H1341 (Small Cell Lung Carcinoma)
How it was run: as §1

[12] = system: NCI-H1876 (Small Cell Lung Carcinoma)
How it was run: as §1

[13] = system: NCI-H2373 (Mesothelioma)
How it was run: as §1

[14] = system: NCI-H596 (Other Solid Carcinomas)
How it was run: as §1

[15] = system: P30-OHK (B-Lymphoblastic Leukemia)
How it was run: as §1

[16] = system: RCC-JW (Kidney Carcinoma)
How it was run: as §1

[17] = system: SAT (Head and Neck Carcinoma)
How it was run: as §1

[18] = system: SKG-IIIa (Cervical Carcinoma)
How it was run: as §1

[19] = system: SUP-M2 (T-Cell Non-Hodgkin's Lymphoma)
How it was run: as §1

[20] = system: SiHa (Cervical Carcinoma)
How it was run: as §1

SMILES | combination Emax [1] | combination Emax [2] | combination Emax [3] | combination Emax [4] | combination Emax [5] | combination Emax [6] | combination Emax [7] | combination Emax [8] | combination Emax [9] | combination Emax [10] | combination Emax [11] | combination Emax [12] | combination Emax [13] | combination Emax [14] | combination Emax [15] | combination Emax [16] | combination Emax [17] | combination Emax [18] | combination Emax [19] | combination Emax [20]
CN(C)CCCOc1ccc(-c2ccc3ncc4c(c3c2)n(C2CCOCC2)c(=O)n4C)cn1 [AZD0156] + C=CCn1c(=O)c2cnc(Nc3ccc(N4CCN(C)CC4)cc3)nc2n1-c1cccc(C(C)(C)O)n1 [AZD1775] (first compound max 1 µM, partner max 1 µM) | 0.437 | 0.894 | 0.545 | 0.622 | 0.306 | 0.745 | 0.231 | 0.551 | 0.519 | 0.289 | 0.675 | 0.982 | 0.408 | 0.307 | 0.678 | 0.221 | 0.427 | 0.203 | 1 | 0.143
CN(C)CCCOc1ccc(-c2ccc3ncc4c(c3c2)n(C2CCOCC2)c(=O)n4C)cn1 [AZD0156] + CCN(CCO)CCCOc1ccc2c(Nc3cc(CC(=O)Nc4cccc(F)c4)[nH]n3)ncnc2c1 [AZD2811] (first compound max 1 µM, 7x7, partner max 1 µM) | 0.342 | 0.0887 | 0.0968 | 0.127 | 0.176 | 0.198 | 0.0974 | 0.231 | 0.29 | 0.108 | 0.409 | 0.853 | 0.354 | 0.207 | 0.834 | 0.093 | 0.142 | 0.0993 | 0.94 | 0.135
CN(C)CCCOc1ccc(-c2ccc3ncc4c(c3c2)n(C2CCOCC2)c(=O)n4C)cn1 [AZD0156] + C[C@@H]1COCCN1C2=NC(=NC(=C2)C3(CC3)[S@](=N)(=O)C)C4=C5C=CNC5=NC=C4 [AZD6738] (first compound max 1 µM, 7x7, partner max 10 µM) | 0.868 | 0.886 | 0.767 | 0.8 | 0.557 | 0.703 | 0.304 | 0.745 | 0.55 | 0.615 | 0.849 | 0.938 | 0.588 | 0.454 | 0.877 | 0.597 | 0.361 | 0.233 | 0.985 | 0.234
CN(C)CCCOc1ccc(-c2ccc3ncc4c(c3c2)n(C2CCOCC2)c(=O)n4C)cn1 [AZD0156] + O=C(c1cc(Cc2n[nH]c(=O)c3ccccc23)ccc1F)N1CCN(C(=O)C2CC2)CC1 [Olaparib] (first compound max 3 µM, partner max 3 µM) | 0.45 | 0.419 | 0.358 | 0.16 | 0.315 | 0.193 | 0.305 | 0.228 | 0.289 | 0.293 | 0.306 | 0.807 | 0.359 | 0.41 | 0.668 | 0.468 | 0.133 | 0.139 | 0.606 | 0.261
C=CCn1c(=O)c2cnc(Nc3ccc(N4CCN(C)CC4)cc3)nc2n1-c1cccc(C(C)(C)O)n1 [AZD1775] + C1CN(CCC1(C(=O)N[C@@H](CCO)C2=CC=C(C=C2)Cl)N)C3=NC=NC4=C3C=CN4 [Capivasertib] (first compound max 3 µM, partner max 3 µM) | 0.702 | 0.996 | 0.734 | 0.703 | 0.472 | 0.73 | 0.413 | 0.65 | 0.626 | 0.763 | 0.923 | 0.956 | 0.54 | 0.708 | 0.947 | 0.619 | 0.563 | 0.574 | 1 | 0.505
C=CCn1c(=O)c2cnc(Nc3ccc(N4CCN(C)CC4)cc3)nc2n1-c1cccc(C(C)(C)O)n1 [AZD1775] + C[C@@H]1COCCN1C2=NC(=NC(=C2)C3(CC3)[S@](=N)(=O)C)C4=C5C=CNC5=NC=C4 [AZD6738] (first compound max 1 µM, partner max 10 µM) | 0.818 | 0.978 | 0.774 | 0.822 | 0.652 | 0.821 | 0.446 | 0.797 | 0.752 | 0.763 | 0.941 | 0.987 | 0.608 | 0.663 | 0.943 | 0.725 | 0.469 | 0.586 | 1 | 0.371
C=CCn1c(=O)c2cnc(Nc3ccc(N4CCN(C)CC4)cc3)nc2n1-c1cccc(C(C)(C)O)n1 [AZD1775] + O=C(c1cc(Cc2n[nH]c(=O)c3ccccc23)ccc1F)N1CCN(C(=O)C2CC2)CC1 [Olaparib] (first compound max 1 µM, partner max 10 µM) | 0.496 | 0.914 | 0.584 | 0.594 | 0.444 | 0.804 | 0.252 | 0.49 | 0.546 | 0.372 | 0.525 | 0.968 | 0.354 | 0.431 | 0.748 | 0.326 | 0.449 | 0.369 | 0.993 | 0.199
COc1nnc2ccc(N3CCC(c4ccc(OCCN5CCN(C)C(=O)[C@H]5C)cc4)CC3)nn12 [AZD5153] + CN(CC[C@H](CSC1=CC=CC=C1)NC2=C(C=C(C=C2)S(=O)(=O)NC(=O)C3=CC=C(C=C3)N4CCC(CC4)[C@H](C5=CC=CC=C5C6=CC=C(C=C6)Cl)O)S(=O)(=O)C(F)(F)F)CCO [AZD4320] (first compound max 1 µM, 7x7, partner max 1 µM) | 0.949 |  | 0.782 |  |  |  |  |  |  |  | 1 | 0.977 | 0.511 | 0.823 | 1 |  | 0.804 |  | 0.986 | 0.527
Cc1c2c(nn1C)CSCc1cc(n(C)n1)CSc1cc(c3ccccc3c1)OCCCc1c(C(=O)O)n(C)c3c-2c(Cl)ccc13 [AZD5991] + CCN(CCO)CCCOc1ccc2c(Nc3cc(CC(=O)Nc4cccc(F)c4)[nH]n3)ncnc2c1 [AZD2811] (first compound max 1 µM, 7x7, partner max 1 µM) | 0.32 | 0.275 |  | 0.36 | 0.29 | 0.314 | 0.296 | 0.349 | 0.371 | 0.227 | 0.341 | 0.998 | 0.267 |  | 0.963 | 0.251 | 0.811 | 0.235 | 1 | 0.368
C[C@@H]1COCCN1c1cc(C2([S@](C)(=N)=O)CC2)nc(-c2ccnc3[nH]ccc23)n1 [AZD6738] + O=C(c1cc(Cc2n[nH]c(=O)c3ccccc23)ccc1F)N1CCN(C(=O)C2CC2)CC1 [Olaparib] (first compound max 10 µM, 7x7, partner max 10 µM) | 0.747 | 0.89 | 0.758 | 0.342 | 0.522 | 0.564 | 0.399 | 0.726 | 0.504 | 0.56 | 0.755 | 0.945 | 0.66 | 0.5 |  | 0.552 | 0.371 | 0.444 | 1 | 0.228
CC(=O)c1c(C)c2cnc(Nc3ccc(N4CCNCC4)cn3)nc2n(C2CCCC2)c1=O [Palbociclib] + CN(CC[C@H](CSC1=CC=CC=C1)NC2=C(C=C(C=C2)S(=O)(=O)NC(=O)C3=CC=C(C=C3)N4CCC(CC4)[C@H](C5=CC=CC=C5C6=CC=C(C=C6)Cl)O)S(=O)(=O)C(F)(F)F)CCO [AZD4320] (first compound max 10 µM, 7x7, partner max 1 µM) | 0.872 |  | 0.759 |  |  |  |  |  |  |  | 0.992 | 0.926 | 0.223 | 0.521 | 0.967 |  | 0.485 |  | 0.897 | 0.104
CCc1c2c(nc3ccc(O)cc13)-c1cc3c(c(=O)n1C2)COC(=O)[C@]3(O)CC [SN-38] + O=C(c1cc(Cc2n[nH]c(=O)c3ccccc23)ccc1F)N1CCN(C(=O)C2CC2)CC1 [Olaparib] (first compound max 0.3 µM, 7x7, partner max 10 µM) | 0.882 | 0.747 | 0.776 | 0.535 | 0.618 | 0.472 | 0.878 | 0.897 | 0.54 | 0.553 | 0.99 |  | 0.801 |  | 0.99 | 0.616 | 0.418 | 0.389 | 1 | 0.32
C[C@@H](c1ccc2nccn2c1)n1nnc2ncc(-c3cnn(C)c3)nc21 [Savolitinib] + CN(CC[C@H](CSC1=CC=CC=C1)NC2=C(C=C(C=C2)S(=O)(=O)NC(=O)C3=CC=C(C=C3)N4CCC(CC4)[C@H](C5=CC=CC=C5C6=CC=C(C=C6)Cl)O)S(=O)(=O)C(F)(F)F)CCO [AZD4320] (first compound max 1 µM, 7x7, partner max 1 µM) | 0.613 |  | 0.173 |  |  |  |  |  |  |  | 1 | 0.797 | 0.0896 | 0.275 | 0.948 |  | 0.189 |  | 0.287 | 0.224
